Assays:
[1] = target: T1, bacterial NAD synthetase enzyme (Bacillus subtilis, UniProt P08164); test: biochemical; format: biochemical
T1 sequence (P08164 2-272 limits assumed): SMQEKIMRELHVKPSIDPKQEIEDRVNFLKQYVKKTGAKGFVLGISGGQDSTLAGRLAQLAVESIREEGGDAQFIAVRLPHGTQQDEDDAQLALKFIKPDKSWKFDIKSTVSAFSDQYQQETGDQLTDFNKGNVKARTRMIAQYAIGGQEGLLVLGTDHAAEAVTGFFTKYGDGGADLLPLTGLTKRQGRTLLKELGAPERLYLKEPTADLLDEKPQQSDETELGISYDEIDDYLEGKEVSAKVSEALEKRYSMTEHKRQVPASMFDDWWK

[2] = tested on: Staphylococcus epidermitis; test: Bacterial growth inhibition screen in LB media (absorbance 595 nm), percent inhibition; conditions: S. epidermitis
[3] = compound at 0.2 mM (Table 312A)

SMILES | % Inhibition ([2]; concentration screened 10 uM) [%] | other results
O=C(c1ccccc1)c1ccc2[nH]c(CCC[n+]3cccc4ccccc43)cc2c1 [Compound 462] | 3.13 | % Inhibition [1, 3]: 3.84%
CC(=O)c1ccc2[nH]c(CCCCCCCOC(=O)C(c3ccccc3)c3ccccc3)cc2c1 [Compound 670] | 5.59 | % Inhibition ([1]; compound at 0.1 mM (Table 314)): 4.65%
c1ccc(Oc2ccc3[nH]c(CCCCCC[n+]4ccccc4)cc3c2)cc1 [Compound 351] | – | % Inhibition [1, 3]: 65.08%; % Inhibition ([2]; concentration screened 100 uM): 99.57%
CC(=O)c1ccc2[nH]c(CCCCCCCCOC(=O)c3ccncc3)cc2c1 [Compound 707] | 3.61 | –
C[n+]1cccc(C(=O)OCCCCn2ccc3cc([N+](=O)[O-])ccc32)c1 [Compound 863] | 4.72 | –
CC(=O)c1ccc2[nH]c(CCCCCCCCOC(=O)c3cccc(N(C)C)c3)cc2c1 [Compound 635] | – | % Inhibition ([2]; concentration screened 100 uM): 7.47%
O=C(OCCCCc1cc2cc(Oc3ccccc3)ccc2[nH]1)C(c1ccccc1)c1ccccc1 [Compound 657] | – | % Inhibition ([2]; concentration screened 100 uM): 37.12%
CC(=O)c1ccc2[nH]c(CCCCOC(=O)C(c3ccccc3)c3ccccc3)cc2c1 [Compound 669] | – | % Inhibition ([2]; concentration screened 100 uM): 11.24%
O=[N+]([O-])c1cc([N+](=O)[O-])c2[nH]c(CCCCC[n+]3cccc4ccccc43)cc2c1 [Compound 416] | 2.09 | –
COC(=O)c1ccc2c(ccn2CCC[n+]2cccc(C(=O)OC)c2)c1 [Compound 171] | 15.33 | –
O=C(OCCCCCCCc1cc2cc(Oc3ccccc3)ccc2[nH]1)c1cccnc1 [Compound 661] | 39.31 | –
O=C(OCCCCn1ccc2cc([N+](=O)[O-])ccc21)c1cnc2ccccc2c1 [Compound 830] | 42.99 | –
O=C([O-])c1ccc[n+](CCCn2c(C(=O)O)cc3ccccc32)c1 [Compound 191] | 46.32 | –
O=C(OCCCCCCCCc1cc2ccc(C(F)(F)F)cc2[nH]1)c1cccnc1 [Compound 683] | 9.26 | –
O=C(OCCCCCCCc1cc2cc(C(=O)c3ccccc3)ccc2[nH]1)c1ccncc1 [Compound 709] | 12.94 | –
O=C(OCCCCc1cc2cc(Oc3ccccc3)ccc2[nH]1)c1ccccc1-c1ccccc1 [Compound 621] | – | % Inhibition ([2]; concentration screened 100 uM): 11.75%
CC(C)c1ccc2[nH]c(CCCCCCCOC(=O)c3ccncc3)cc2c1 [Compound 703] | 4.29 | –
CC(=O)c1ccc2[nH]c(CCCCCCCCOC(=O)C(c3ccccc3)c3ccccc3)cc2c1 [Compound 671] | – | % Inhibition ([2]; concentration screened 100 uM): 5.72%
c1ccc2[nH]c(CCC[n+]3cccc4ccccc43)cc2c1 [Compound 390] | 5.92 | –
COc1ccc2c(ccn2CCCCOC(=O)c2cc3ccccc3[n+](C)c2)c1 [Compound 820] | 65.74 | –
CC(C)c1ccc2[nH]c(CCCCCCCCOC(=O)C(c3ccccc3)c3ccccc3)cc2c1 [Compound 665] | – | % Inhibition ([2]; concentration screened 100 uM): 12.75%
CC(C)c1ccc2[nH]c(CCCCCCCCOC(=O)c3cccc(N(C)C)c3)cc2c1 [Compound 626] | – | % Inhibition ([2]; concentration screened 100 uM): 14.26%
CN(C)c1cccc(C(=O)OCCCCCCCc2cc3cc(Oc4ccccc4)ccc3[nH]2)c1 [Compound 616] | 5.59 | –
C[n+]1cc(C(=O)OCCCCCCCCn2ccc3cc(OCc4ccccc4)ccc32)cc2ccccc21 [Compound 829] | 98.64 | –

SMILES | % Inhibition ([2]; concentration screened 10 uM) [%] | other results
O=C(OCCCCCCCc1cc2cc(C(F)(F)F)ccc2[nH]1)c1ccccc1-c1ccccc1 [Compound 613] | 1.36 | –
c1ccc2[nH]c(CCCC[n+]3cccc4ccccc43)cc2c1 [Compound 391] | 5.29 | –
O=C(OCCCCc1cc2cc(C(=O)c3ccccc3)ccc2[nH]1)c1cccnc1 [Compound 693] | 14.37 | –
O=C(OCCCCCCCCc1cc2cc(Oc3ccccc3)ccc2[nH]1)c1ccncc1 [Compound 701] | 3.88 | –
CC(=O)c1ccc2[nH]c(CCCCCCCCOC(=O)c3ccccc3-c3ccccc3)cc2c1 [Compound 641] | – | % Inhibition ([2]; concentration screened 100 uM): 8.10%
CN(C)c1cccc(C(=O)OCCCCCCCc2cc3cc(C(=O)c4ccccc4)ccc3[nH]2)c1 [Compound 643] | 15.46 | –
C[N+](C)(C)c1cccc(C(=O)OCCCCn2ccc3cc(OCc4ccccc4)ccc32)c1 [Compound 805] | 50.87 | –
O=C(OCCCCCCCc1cc2cc(C(F)(F)F)ccc2[nH]1)C(c1ccccc1)c1ccccc1 [Compound 652] | 2.52 | –
CC(=O)c1ccc2[nH]c(CCCCCCCOC(=O)c3ccncc3)cc2c1 [Compound 706] | 6.68 | –
CN(C)c1ccc(C(=O)OCCCCCCCCc2cc3cc([N+](=O)[O-])ccc3[nH]2)cc1 [Compound 727] | 42.23 | –
Fc1cc(F)c2[nH]c(CCCCCCC[n+]3cccc4ccccc43)cc2c1 [Compound 412] | 7.73 | –
CN(C)c1ccc(C(=O)OCCCCCCCc2cc3cc(C(F)(F)F)ccc3[nH]2)cc1 [Compound 610] | 33.51 | –
O=C(OCCCCCCCCc1cc2cc(C(=O)c3ccccc3)ccc2[nH]1)c1cccnc1 [Compound 680] | 22.48 | –
COc1ccc2c(ccn2CCCCOC(=O)c2ccc([N+](C)(C)C)cc2)c1 [Compound 780] | 4.78 | –
CC(=O)c1ccc2[nH]c(CCCCCCCCOC(=O)c3cccnc3)cc2c1 [Compound 674] | 7.70 | –
CN(C)c1ccc(C(=O)OCCCCc2cc3cc(C(F)(F)F)ccc3[nH]2)cc1 [Compound 609] | – | % Inhibition ([2]; concentration screened 100 uM): 7.35%
O=C(c1ccccc1)c1ccc2[nH]c(CCCCOC(=O)C(c3ccccc3)c3ccccc3)cc2c1 [Compound 675] | – | % Inhibition ([2]; concentration screened 100 uM): 11.37%
C[n+]1cc(C(=O)OCCCCn2ccc3cc(OCc4ccccc4)ccc32)cc2ccccc21 [Compound 825] | 83.13 | –
CC(C)c1ccc2[nH]c(CCCCCCCOC(=O)C(c3ccccc3)c3ccccc3)cc2c1 [Compound 664] | 3.88 | –
O=C(OCCCCc1cc2cc(C(F)(F)F)ccc2[nH]1)c1ccccc1-c1ccccc1 [Compound 612] | – | % Inhibition ([2]; concentration screened 100 uM): 10.24%
O=C(OCCCn1ccc2cc([N+](=O)[O-])ccc21)c1cccnc1 [Compound 855] | 49.58 | –
CN(C)c1ccc(C(=O)OCCCCCn2ccc3cc([N+](=O)[O-])ccc32)cc1 [Compound 843] | 2.20 | –
CN(C)c1cccc(C(=O)OCCCCCCn2ccc3cc([N+](=O)[O-])ccc32)c1 [Compound 838] | 17.65 | –
CC(C)c1ccc2[nH]c(CCCCCCCCOC(=O)c3ccncc3)cc2c1 [Compound 704] | 19.07 | –

SMILES | % Inhibition ([2]; concentration screened 10 uM) [%] | other results
O=C(c1ccccc1)c1ccc2[nH]c(CCCCCCCCOC(=O)c3ccccc3-c3ccccc3)cc2c1 [Compound 650] | – | % Inhibition ([2]; concentration screened 100 uM): 7.73%
CN(C)c1ccc(C(=O)OCCCCCCCCCn2ccc3cc([N+](=O)[O-])ccc32)cc1 [Compound 847] | 19.84 | –
O=C(CCc1cccnc1)OCCCCCCCCc1cc2cc([N+](=O)[O-])ccc2[nH]1 [Compound 728] | 13.28 | –
O=C(OCCCCCCCc1cc2cc(Oc3ccccc3)ccc2[nH]1)C(c1ccccc1)c1ccccc1 [Compound 658] | 1.43 | –
c1ccc(Oc2ccc3[nH]c(CCCCCC[n+]4cccc5ccccc54)cc3c2)cc1 [Compound 459] | 16.09 | –
CC(=O)c1ccc2[nH]c(CCCCOC(=O)c3cccc(N(C)C)c3)cc2c1 [Compound 633] | – | % Inhibition ([2]; concentration screened 100 uM): 5.53%
O=C(OCCCCCCCCc1cc2cc(C(F)(F)F)ccc2[nH]1)c1cccnc1 [Compound 656] | 2.59 | –
O=C(OCCCCc1cc2cc(Oc3ccccc3)ccc2[nH]1)c1cccnc1 [Compound 684] | 10.83 | –
CC(C)c1ccc2[nH]c(CCCCCCCCOC(=O)c3cccnc3)cc2c1 [Compound 668] | 3.07 | –
CC(C)c1ccc2[nH]c(CCCCCCCCOC(=O)c3ccc(N(C)C)cc3)cc2c1 [Compound 629] | – | % Inhibition ([2]; concentration screened 100 uM): 6.66%
O=C(OCCCCc1cc2cc(C(F)(F)F)ccc2[nH]1)C(c1ccccc1)c1ccccc1 [Compound 651] | – | % Inhibition ([2]; concentration screened 100 uM): 13.51%
CN(C)c1ccc(C(=O)OCCCCCCCCc2cc3cc(C(=O)c4ccccc4)ccc3[nH]2)cc1 [Compound 647] | – | % Inhibition ([2]; concentration screened 100 uM): 13.38%
O=C(OCCCCCCCCc1cc2cc(Oc3ccccc3)ccc2[nH]1)c1ccccc1-c1ccccc1 [Compound 623] | – | % Inhibition ([2]; concentration screened 100 uM): 34.17%
CC(C)c1ccc2[nH]c(CCCCOC(=O)c3cccnc3)cc2c1 [Compound 687] | 14.44 | –
CC(=O)c1ccc2[nH]c(CCCCOC(=O)c3ccccc3-c3ccccc3)cc2c1 [Compound 639] | – | % Inhibition ([2]; concentration screened 100 uM): 7.41%
CC(=O)c1ccc2[nH]c(CCCCOC(=O)c3cccnc3)cc2c1 [Compound 690] | 10.01 | –
CC(C)c1ccc2[nH]c(CCCCCCCCOC(=O)c3ccccc3-c3ccccc3)cc2c1 [Compound 632] | – | % Inhibition ([2]; concentration screened 100 uM): 22.42%
CN(C)c1ccc(C(=O)OCCCCc2cc3cc(Oc4ccccc4)ccc3[nH]2)cc1 [Compound 618] | – | % Inhibition ([2]; concentration screened 100 uM): 11.06%
C[n+]1cccc(C(=O)OCCCCCCCCCc2cc3cc([N+](=O)[O-])ccc3[nH]2)c1 [Compound 281] | 84.23 | –
CC(C)c1ccc2[nH]c(CCCCCCCOC(=O)c3cccc(N(C)C)c3)cc2c1 [Compound 625] | 7.77 | –
O=C(OCCCCCCCc1cc2cc(Oc3ccccc3)ccc2[nH]1)c1ccccc1-c1ccccc1 [Compound 622] | 7.97 | –
O=C(OCCCCCCCCc1cc2cc([N+](=O)[O-])ccc2[nH]1)c1ccccc1-c1ccccc1 [Compound 729] | 8.24 | –
c1ccc(Oc2ccc3[nH]c(CCC[n+]4cccc5ccccc54)cc3c2)cc1 [Compound 456] | 3.69 | –
